{"source": "patent US8828678B2", "about": "“Self-immolative probes for enzyme activity detection” (Enzo Life Sciences, Inc., priority 2010, dated 2014)", "key": {"hypoxic HeLa cells": {"test_system": "hypoxic HeLa cells", "experiment": "Detection of hypoxia with hypoxia markers using fluorescence microscopy", "type": "cell-based, human", "details": "5 μM, 3.5 h, chemical induction of hypoxia (CoCl2, DFO, DMOG) or anoxic treatment, FITC filter", "method": "The human cervical adenocarcinoma epithelial cell line HeLa, U-2 OS human bone osteosarcoma cell line and hamster ovary CHO K1 cell line were obtained from ATTC. HeLa cells were routinely cultured in Eagle's Minimum Essential Medium with low glucose (ATCC), supplemented with 10% fetal bovine serum (ATCC) and 100 U/ml penicillin, 100 μg/ml streptomycin (Sigma-Aldrich, St. Louis, Mo.). U-2 OS cells were routinely cultured in McCoy's 5a Modified Medium (ATCC), supplemented with 10% fetal bovine serum heat (ATCC) and 100 U/ml penicillin+100 μg/ml streptomycin (Sigma-Aldrich). […]\nThe day before the experiment, the cells were seeded on 4-well microscope slides (Cel-Line™ Brand, Portsmouth, N.H.) at a density 1×10^4 cells/well (2×10^4 cells/cm^2). […] Post-treatment, the slides were washed twice with PBS, coverslipped and visualized using an Olympus BX-51 fluorescence microscope (FITC filter set, 490ex/525em).\nIn parallel, the hypoxia cellular state was detected using the hypoxia detecting reagent pimonidazole (Varia et al., 1998; Young, 1977). […] Slides were stained with a 1:100 dilution of FITC-MAb1 against pimonidazole (HP-1 kit from Hypoxyprobe) for 45 min at 4° C., washed twice with PBS, coverslipped and visualized using an Olympus BX-51 fluorescence microscope equipped with an FITC filter set (490ex/525em). […]"}, "HeLa cells": {"test_system": "HeLa cells", "experiment": "Combined detection of hypoxia and redox status in live cells by fluorescent microscopy", "type": "cell-based, human", "details": "for superoxide production (superoxide detection reagent staining) in treated HeLa cells: 0.2 mM CoCl2, 0.2 mM DFO or 1 mM DMOG, 3.5 h", "method": "HeLa and U-2 OS cells were cultured as described in Example 7. Stock solutions of CD-1 and CD-5 and various hypoxia inducers were prepared and stored as described in Examples 7 and 8. Additionally, 5 mM stock solutions (5000×) of 2′,7′-dichloro-fluorescein diacetate (DCFDA, an indicator of global ROS generation) and dihydroethidium (DHE, specific indicator of superoxide generation) were made in anhydrous DMF. DMSO was avoided, since this solvent is a hydroxyl radical scavenger and its presence may affect ROS/RNS production in cellular systems. The following stocks of ROS inducers were prepared in DMF: 10 mM pyocyanin (general ROS generating compound, 100×), 20 mM antimycin A (general ROS inducer, 400×), 50 mM pyrogallol (a superoxide radical generator, 1000×), 1 mM t-butyl hydroperoxide (TBHP, peroxide radical inducer, 10,000×). ROS probes and inducers were aliquoted and stored at −80° C.\nThe day before the experiment, the cells were seeded on 4-well microscope slides (Cel-Line™ Brand, Portsmouth, N.H.) at a density 1×10^4 cells/well (2×10^4 cells/cm^2). On the day of the experiment, the cells were preloaded with both hypoxia probe (5 μM final concentration in cell culture medium) and ROS detecting reagent with suitable spectral characteristics. Two ROS-detecting probes, DCFDA and DHE, were used in a pilot experiment in conjunction with hypoxia self-immolative probes. The hydrolyzed product of DCFDA, DCFH, is considered to be a general indicator of ROS, reacting with H2O2 (in the presence of peroxidases), ONOO^−, lipid hydroperoxides, and hydroxyl radicals. The oxidized product can be detected by strong fluorescence emission at around 525 nm when excited at around 488 nm. Because H2O2 is a secondary product of O2.^−, DCFH fluorescence has been used to implicate O2.^− production. The direct reaction of DHE with O2.^− yields a very specific fluorescent product, requiring no conversion to H2O2. The product of the DHE reaction with O2.^− fluoresces strongly at around 600 nm when excited at 500-530 nm.\nTested pairs of the probes were as follows: CD-5 with DCFDA or DHE, and CD-1 with DHE. A hypoxic state was induced in the cells as described in Example 7. Control slides were singly-stained with hypoxia or ROS-detecting probes only. Additional slides were treated with different general and specific ROS inducers and stained with ROS-detecting probes to control ROS staining. Post-treatment, the slides were washed twice with PBS, coverslipped and visualized using an Olympus BX-51 fluorescence microscope and a DAPI filter set (350 ex/470em) for CD-5, an FITC filter set (490ex/525em) for CD-1 or for total ROS detection reagent, and an orange filter set (550ex/620em) for HE."}, "Jurkat cells [1]": {"test_system": "Jurkat cells", "experiment": "Combined detection of hypoxia and superoxide in live cells by flow cytometry", "type": "cell-based, human", "method": "HeLa, U-2 OS, and Jurkat cell lines were cultured as described in Examples 7 and 9. Stock solutions of the probes and inhibitors were prepared as described in Examples 7 and 10.\nThe day before the experiment, HeLa and U-2 OS cells were seeded in 6-well tissue culture plates at a density of 5×10^5 cells/well. Jurkat cells were collected in logarithmic phase of growth and aliquoted at a density of 5×10^5 cells/sample. On the day of the experiment, the cells were preloaded with either hypoxia or ROS-detecting probes only or with the combination of hypoxia and ROS-detecting probes with compatible spectral characteristics. Samples stained with single hypoxia probes or with two ROS-detecting probes were made to validate data obtained with the combination of hypoxia and redox probes. The probes used in the experiment and their final concentrations in cell culture medium were as follows: CD-1(5 μM) and CD-6 (1 μM), DCFDA, peroxide/peroxynitrite/hydroxyl detection probe and HE, specific superoxide detection reagent (1 μM for both redox probes). Hypoxia was induced in the cells as described in Example 7. Additionally, cells were treated with different general and specific ROS inducers and stained with ROS-detecting probes to control ROS production and staining. Post-treatment, the adherent cells (HeLa and U-2 OS) were collected by trypsinization, re-suspended in 0.5 mL of fresh PBS and analyzed using flow cytometry. Jurkat cells were analyzed without washing. Flow cytometry experiments were performed using an FACS Calibur benchtop flow cytometer (BD Biosciences) equipped with a blue (488 nm) laser, and the fluorescence was recorded in the FITC (530/30 filter), PE (585/42 filter) and PerCP (670 LP filter) channels. Data were collected uncompensated, also compensation corrections were performed using unstained cells, and cells stained with each single dye separately (CD-1, CD-6, DCFDA or HE). To quantify data, quadrant gates were set using untreated samples."}, "Jurkat cells [2]": {"test_system": "Jurkat cells", "experiment": "Detection of hypoxia using flow cytometry", "type": "cell-based, human", "details": "5 μM CD-1, 1 μM CD-6, versus vehicle-treated loaded cells", "method": "HeLa and U-2 OS cells were cultured as described in Example 7. Human Jurkat T-cell leukemia cells (the A3 subclone) was obtained from ATCC and routinely cultured in RPMI-1640 medium (ATCC) supplemented with 10% fetal bovine serum (ATCC) and 100 U/ml penicillin+100 μg/ml streptomycin (Sigma-Aldrich). Cell cultures were maintained in an incubator at 37° C., with 5% CO2 atmosphere. CD-1, CD-4 and CD-6 self-immolative hypoxia probes were prepared as described in Example 8. All hypoxia inducers stocks were prepared as described in Example 7.\nThe day before the experiment, HeLa and U-2 OS cells were seeded in 6-well tissue culture plates at a density 5×10^5 cells/well. […] Post-treatment, the adherent cells (HeLa and U-2 OS) were collected by trypsinization, re-suspended in 0.5 mL of fresh PBS and analyzed using flow cytometry. Jurkat cells were analyzed without washing.\nFlow cytometry experiments were performed using a FACS Calibur benchtop flow cytometer (BD Biosciences) equipped with a blue (488 nm) laser, and the fluorescence was recorded in the FITC (530/30 filter), PE (585/42 filter) and PerCP (670 LP filter) channels. Hypoxic cells were detected by detecting increases in fluorescence. The degree of hypoxia (Khyp) can be quantified by using Kolmogorov-Smirnov statistics (Young, 1977) or the following formula: Khyp=(MFIhyp−MFIcon)/MFIhyp, […]"}, "[3]": {"experiment": "Chemical assay: reduction of probe by sodium hydrosulfite, fluorescence", "details": "PBS pH 7.4, room temperature, over a 60 minute period", "method": "A solution of probe CD-6 in DMSO (0.1-1.0 μl) was added to 90 μl of PBS buffer (10 mM, pH 7.4). After mixing, 10 μl of 100 mM aqueous sodium hydrosulfite was added. The reaction mixture was incubated at room temperature for amount of time ranging from 1 minute to 6 hours. As a control, 10 μl of water instead of sodium hydrosulfite was used."}, "[4]": {"test_system": "bacterial nitroreductases", "details": "cited from earlier work"}, "[5]": {"test_system": "mammalian single-electron reductases", "details": "cited from earlier work"}}, "data": [{"smiles": "O=C(Nc1ccc2c(c1)Oc1cc(NC(=O)N3CCOCC3)ccc1C21OC(=O)c2ccccc21)OCc1ccccc1", "note": "(centres unmarked) [CD-3]", "values": [{"measurement": "fluorescence signal in hypoxic HeLa cells", "setting": "hypoxic HeLa cells", "result": "did not yield any fluorescent signal"}]}, {"smiles": "O=C(Nc1ccc2c(C(F)(F)F)cc(=O)oc2c1)OCc1ccc([N+](=O)[O-])cc1", "note": "[CD-5]", "values": [{"measurement": "hypoxia probe fluorescent signal in hypoxic HeLa cells, multiplexed with ROS dyes", "setting": "HeLa cells; 5 μM, all four hypoxic samples (anoxia, CoCl2, DFO, DMOG)", "result": "bright fluorescent signal"}]}, {"smiles": "O=C(Nc1ccc2c(c1)Oc1c(cc3c4c1CCCN4CCC3)C21OC(=O)c2ccccc21)OCc1ccc([N+](=O)[O-])cc1", "note": "(centres unmarked) [CD-6]", "values": [{"measurement": "detection of hypoxic cell populations", "setting": "Jurkat cells [1]; CD-6 1 μM with DCFDA or HE dyes or alone, flow cytometry", "result": "able to detect hypoxic cell populations"}, {"measurement": "fluorescence in Jurkat cells treated with chemical hypoxia inducers or subjected to anoxia", "setting": "Jurkat cells [2]", "result": "fluorescence increase"}, {"measurement": "fluorescence after combining with sodium hydrosulfite", "setting": "[3]", "result": "increasing fluorescence"}]}, {"smiles": "O=c1c(Cl)c2oc3cc([N+](=O)[O-])ccc3nc-2c2ccccc12", "note": "[CNOB, 6-Chloro-9-nitro-5-oxo-5H-benzo[a]phenoxazine]", "values": [{"measurement": "substrate for bacterial nitroreductases", "setting": "[4]", "result": "good substrate"}, {"measurement": "substrate for mammalian nitroreductases", "setting": "[5]", "result": "apparently not a substrate"}]}, {"smiles": "[Cl][Co][Cl]", "note": "[CoCl2, cobalt chloride]", "values": [{"measurement": "superoxide production: population of orange positive cells", "setting": "Jurkat cells [1]; Jurkat cells, compared to the untreated cells", "result": "about 20%"}, {"measurement": "superoxide production (superoxide detection reagent staining) in treated HeLa cells", "setting": "HeLa cells", "result": "only moderate staining"}]}, {"smiles": "CC(=O)N(O)CCCCCNC(=O)CCC(=O)N(O)CCCCCNC(=O)CCC(=O)N(O)CCCCCN", "note": "[DFO, desferrioxamine]", "values": [{"measurement": "superoxide production (superoxide detection reagent staining) in treated HeLa cells", "setting": "HeLa cells", "result": "Abundant superoxide production"}]}, {"smiles": "COC(=O)CNC(=O)C(=O)OC", "note": "[DMOG, dimethyloxalylglycine, N-[Methoxyoxoacetyl]glycine methyl ester]", "values": [{"measurement": "superoxide production (superoxide detection reagent staining) in treated HeLa cells", "setting": "HeLa cells", "result": "Abundant superoxide production"}, {"measurement": "peroxides/peroxynitrite formation in treated HeLa cells", "setting": "HeLa cells; DCFDA staining", "result": "detected in DMOG-treated cells only"}]}, {"smiles": "Cn1c2cccc(=O)c-2nc2ccccc21", "note": "[Pyocyanin, pyocyanin]", "values": [{"measurement": "hypoxia state: positive green cells", "setting": "Jurkat cells [1]; Jurkat cells stained with CD-1, pyocyanin-treated", "result": "about 10%"}, {"measurement": "superoxide production in treated Jurkat cells", "setting": "Jurkat cells [1]; positive control for ROS production", "result": "high superoxide production"}]}]}
